# Experimental data as given in paper PMC11313944, “Ethyl Acetate Fraction from Eleutherococcus divaricatus Root Extract as a Promising Source of Compounds with Anti-Hyaluronidase, Anti-Tyrosinase, and Antioxidant Activity but Not Anti-Melanoma Activity” (Molecules, 2024).
# pIC50: −log10 of the molar value. Marks after values point to notes of the source that are not given here.
# How the values were obtained:
# [1] = test system: mushroom tyrosinase (mTYR); assay: Tyrosinase inhibition assay (L-tyrosine substrate); type: biochemical; settings: phenolic acid and eleutheroside standards (Table 6)
# Description: Tyrosinase inhibitor assays were conducted in 96-well plates using a modified method originally described by Wróbel-Biedrawa. The process involves the conversion of […] to L-DOPA, then to DOPA-quinone, facilitated by the tyrosinase enzyme. This reaction results in the solution turning brown. In brief, 10 μL of the sample (concentrations of 10.0, 1.0, and 0.1 mg/mL in 10% DMSO) was combined with 150 μL of a phosphoric buffer containing mushroom tyrosinase (pH = 6.88, 100 U/mL). This mixture was then incubated for 10 min at room temperature. […] Following incubation, L-tyrosine (0.3 mg/mL) was added to each well, and the absorbance was measured at 492 nm (using a kinetic model every 5 min). Two time points (t1 and t2) were selected within the linear range of the graph. All samples were tested in triplicate. […] INHTYR=AC−AS/AC∗100%
# AS—the difference in absorbance between times t2 and t1 for the sample;
# AC—the difference in absorbance between times t2 and t1 for the positive control.
# [2] = target: hyaluronidase from bovine testes (bHYAL) (Bos taurus, UniProt Q2YDK3); assay: Bovine hyaluronidase inhibition assay (CTAB turbidimetric); type: biochemical
# Chain of hyaluronidase from bovine testes (bHYAL) (Q2YDK3 entry or part of it): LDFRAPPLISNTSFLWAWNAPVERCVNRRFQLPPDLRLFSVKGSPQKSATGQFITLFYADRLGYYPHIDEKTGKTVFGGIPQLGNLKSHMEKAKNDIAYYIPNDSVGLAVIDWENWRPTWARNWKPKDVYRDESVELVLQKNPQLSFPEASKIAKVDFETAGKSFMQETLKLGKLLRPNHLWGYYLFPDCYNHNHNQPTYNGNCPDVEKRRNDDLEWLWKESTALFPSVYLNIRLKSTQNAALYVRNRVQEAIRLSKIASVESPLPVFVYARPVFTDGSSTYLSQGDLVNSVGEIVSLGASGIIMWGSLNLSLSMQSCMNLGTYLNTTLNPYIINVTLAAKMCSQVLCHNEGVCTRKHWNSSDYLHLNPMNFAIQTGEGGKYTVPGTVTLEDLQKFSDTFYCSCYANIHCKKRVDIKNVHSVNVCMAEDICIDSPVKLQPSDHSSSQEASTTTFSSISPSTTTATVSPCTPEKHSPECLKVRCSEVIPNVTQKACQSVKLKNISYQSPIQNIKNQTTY
# Description: Bovine hyaluronidase inhibitor assays were conducted in 96-well plates, following a modified method originally described by Di Ferrante and Studzińska-Sroka. The activity of the compounds or extracts was determined based on the precipitation of non-hydrolyzed hyaluronic acid using cetyltrimethylammonium bromide (CTAB). A 10% water solution of DMSO was used to dissolve the extract. Then, 15 μL of extracts at concentrations of 10.0, 1.0, and 0.1 mg/mL in the well were mixed with an acetate buffer (15 μL, pH = 5.35), an incubation buffer (25 μL, pH = 5.35, 0.01% BSA, 0.45% NaCl), and an enzyme solution (25 μL, 30 U/mL in the incubation buffer). This mixture was incubated at 37 °C for 10 min. Following this, a hyaluronic acid solution (25 μL, 0.3 mg/mL in an acetate buffer with a pH of 5.35) was added. The plates were then incubated for an additional 45 min at 37 °C. After incubation, non-hydrolyzed hyaluronic acid was precipitated by adding 2.5% CTAB (200 μL). The plates were then maintained at 25 °C for 10 min. The intensity of the complex formation was measured at a wavelength of 600 nm. The presence of inhibition was determined by measuring the absorbance of the solution without the inhibitor (AC) and the enzyme (AT). All samples were tested in triplicate. The inhibition of hyaluronidase was calculated using a specific equation, with aescin used as a standard. INHHYAL=AS−AC/AT−AC∗100%
# (§1) AS—absorbance of the HA + sample + enzyme;
# (§2) AC—absorbance of the HA + enzyme;
# (§3) AT—absorbance of the HA + sample.
# [3] = ABTS free radical scavenging activity; settings: 30 min incubation
# Description: The ABTS free radical scavenging test was conducted following the method outlined by Wu et al. A working solution of ABTS+ was prepared by combining 10 mL of ABTS (7 mM in H2O) with 10 mL of potassium persulfate (2.45 mM in H2O). This mixture was then left to incubate in the dark for 12 h. The ABTS solution was subsequently diluted with water until it reached an absorbance of 0.700 ± 0.03 at 405 nm. Then, volumes of 10 μL of extracts at concentrations of 1 mg/mL, 0.1 mg/mL, and 0.01 mg/mL (dissolved in MeOH) were combined with 190 μL of the ABTS+ solution and incubated for 30 min. The absorbance at 405 nm was measured after the incubation period. Butylated hydroxyanisole (BHA) was used as a control. The antioxidant activity was then calculated using a specific equation. INHABTS=AC−AS/AC∗100%
# AS—the absorbance for sample + ABTS;
# AC—the absorbance without sample + ABTS.
# [4] = DPPH free radical scavenging activity; settings: 60 min incubation
# Description: The DPPH free radical scavenging test was conducted according to the procedure established by Naseer et al.. A working solution of DPPH• was prepared by dissolving 24 mg of DPPH in 100 mL of […]. This solution was further diluted with methanol until it reached an absorbance of 0.900 ± 0.03 at 515 nm. Subsequently, volumes of 10 μL of extracts at concentrations of 1 mg/mL, 0.1 mg/mL, and 0.01 mg/mL (dissolved in MeOH) were combined with 190 μL of the DPPH• solution and allowed to incubate for 60 min. The absorbance at 515 nm was measured post incubation. Butylated hydroxyanisole (BHA) was used as a control. The antioxidant activity was then calculated using a specified equation. INHDPPH=AC−AS/AC∗100%
# AS—the absorbance for sample + DPPH;
# AC—the absorbance without sample + DPPH.
# [5] = test system: UACC-647 melanoma cells; assay: MTT viability assay, UACC-647; type: cell-based, human
# Description: (§4) The following human melanoma cell lines were used in this study: A375 (ATCC:CRL-1619), UACC-647 (CVCL_4049), and SK-MEL-30 (DSMZ:ACC 151). A375 cells were maintained in Dulbecco’s Modified Eagle’s Medium (DMEM). UACC-647 and SK-MEL-30 were cultured in RPMI-1640. All basal media were supplemented with fetal bovine serum (FBS) at a final concentration of 10%. The control used in the study was BJ foreskin fibroblasts (ATCC:CRL-2522). To facilitate the growth of BJ cells, Eagle’s Minimum Essential Medium (EMEM) with 10% FBS was utilized. Tissue culture-treated Petri dishes were used to support all cell lines. A temperature of 37 °C and 5% CO2 were maintained routinely. The cells were expanded for a few passages, then seeded onto 96-well plates, where they were left to attach overnight. The following day, the cells were exposed to E. divaricatus fractionated extracts at descending concentrations, starting from 200 µg/mL, or to a vehicle (DMSO, 0.1%). Alternatively, the cells were treated with doxorubicin (DOX) to independently determine the inhibitory concentrations causing the 10, 50, and 90% levels of maximal inhibition (IC10, IC50, and IC90, respectively) of cellular viability for each melanoma cell line. Then, the melanoma cells were treated with the DOX at IC10, IC50, or IC90, followed by the addition of the fractions of the extracts from E. divaricatus at a dose of 200 µg/mL. Upon 24 h of incubation, the viability of the cells was assessed by MTT assay.
# (§5) Dose–response curves were obtained using GraphPad Prism 8.4.3 software running on a personal computer. Experimental datapoints were fitted to the sigmoidal equation, and the IC50 value was calculated. IC10 and IC90 values were computed using a web tool available at https://www.graphpad.com/ accessed on 20 May 2023.
# [6] = test system: A375 melanoma cells; assay: MTT viability assay, A375; type: cell-based, human
# Description: as §4, §5
# [7] = test system: SK-MEL-30 melanoma cells; assay: MTT viability assay, SK-MEL-30; type: cell-based, human
# Description: as §4, §5
# [8] = target: hyaluronidase; settings: cited from earlier work
# [9] = test system: human hyaluronidase (hHYAL); settings: cited from earlier work
# [10] = target: T1, human serum hyaluronidase (hHYAL) (Homo sapiens, UniProt Q12794); assay: Human serum hyaluronidase inhibition, serum of children with acute lymphoblastic leukemia; type: biochemical; settings: mean over sera of 5 patients
# T1 construct: from tissue; host or cells: serum of children diagnosed with acute lymphoblastic leukemia
# T1 sequence (Q12794 22-435): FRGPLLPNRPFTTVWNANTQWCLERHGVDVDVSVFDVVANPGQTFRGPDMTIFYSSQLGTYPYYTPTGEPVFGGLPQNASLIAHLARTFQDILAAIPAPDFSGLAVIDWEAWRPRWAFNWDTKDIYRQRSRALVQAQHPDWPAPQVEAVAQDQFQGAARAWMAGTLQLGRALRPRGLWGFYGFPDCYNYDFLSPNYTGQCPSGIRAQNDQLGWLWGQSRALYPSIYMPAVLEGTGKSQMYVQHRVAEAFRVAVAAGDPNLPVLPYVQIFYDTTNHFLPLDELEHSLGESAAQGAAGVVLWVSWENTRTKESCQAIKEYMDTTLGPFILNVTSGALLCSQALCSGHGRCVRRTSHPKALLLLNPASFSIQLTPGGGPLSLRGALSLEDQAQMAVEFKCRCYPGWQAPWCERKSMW
# Description: Five boys diagnosed with acute lymphoblastic leukemia (ALL) before starting treatment were included in the study. These patients were diagnosed at the Department of Pediatric Hematology and Oncology at Jurasz University Hospital in Bydgoszcz, Poland, between 2019 and 2020. Venous blood samples were collected from each child while fasting and placed into serum tubes supplied by Becton Dickinson, located in Franklin Lakes, NJ, USA. The blood samples were left to clot at room temperature for 30 min, then centrifuged for 20 min at 2000× g, also at room temperature. The samples were then collected and stored at a temperature of −80 °C until the time of analysis. The study was approved by the local Bioethics Committee (approval number 608/2019) and was conducted in accordance with the Declaration of Helsinki.
# The inhibition of human serum hyaluronidase was assessed using modified methods. The activity of the compounds or extracts was determined by precipitating non-hydrolyzed hyaluronic acid with cetyltrimethylammonium bromide (CTAB). […] The intensity of the complex formation was measured at a wavelength of 600 nm. […] The inhibition of hyaluronidase was calculated using a specific equation, with aescin used as a standard. […]
# as §1, §2, §3
# [11] = phenolic acid and eleutheroside standards (Table 6)
# [12] = Homo sapiens, A-375, A375, 24 h
compound,measurement,setting,value
"COc1cc(C2OCC3C(c4cc(OC)c(O[C@@H]5O[C@H](CO)[C@@H](O)[C@H](O)[C@H]5O)c(OC)c4)OCC23)cc(OC)c1O[C@@H]1O[C@H](CO)[C@@H](O)[C@H](O)[C@H]1O (single isomer, unassigned; (-)) [Eleutheroside E, (−)-siringaresinol 4,4″-O-β-D-diglucoside]",IC50 mTYR,[1],no activity
same,IC50 bHYAL,[2]; [11],no activity
"O=C1O[C@H]([C@@H](O)CO)C(O)=C1O [AA, ascorbic acid]",IC50 ABTS,[3],2.27 ± 0.07 ^a µg/mL
same,IC50 DPPH,[4],24.93 ± 0.28 ^ab µg/mL
"COc1ccc(O)c(C(C)(C)C)c1 [BHA, Butylated hydroxyanisole]",IC50 ABTS,[3],2.35 ± 0.11 ^a µg/mL
same,IC50 DPPH,[4],62.52 ± 4.13 ^ab µg/mL
O=C(O)/C=C/c1ccc(O)c(O)c1 [Caffeic acid],IC50 mTYR,[1],56.22 ± 0.67 ^a µg/mL
O=C(/C=C/c1ccc(O)c(O)c1)O[C@@H]1C[C@](O)(C(=O)O)C[C@@H](O)[C@H]1O [Chlorogenic acid],IC50 mTYR,[1],107.52 ± 3.46 ^ab µg/mL
"COc1cccc2c1C(=O)c1c(O)c3c(c(O)c1C2=O)C[C@@](O)(C(=O)CO)C[C@@H]3O[C@H]1C[C@H](N)[C@H](O)[C@H](C)O1 [DOX, doxorubicin]",pIC50,"[5]; Homo sapiens, UACC-647, 24 h",5.94
same,IC90,"[5]; Homo sapiens, UACC-647, 24 h",3.76 µM
same,maximal suppression of viability,[5]; UACC-647,39.15%
same,IC10,"[5]; UACC-647, 24 h",0.36 µM
same,maximal level of inhibition of viability,[6]; A375,96.38%
same,IC10,"[6]; A375, 24 h",0.09 µM
same,inhibition of viability,"[6]; A375, DOX alone at IC90",96%
same,pIC50,[6]; [12],6.48
same,IC90,[6]; [12],1.19 µM
same,pIC50,"[7]; Homo sapiens, SK-MEL-30, 24 h, read-out: IC50 (50% of maximal inhibition of viability)",5.82
same,IC90,"[7]; Homo sapiens, SK-MEL-30, 24 h, read-out: IC90 (90% of maximal inhibition of viability)",9.63 µM
same,maximal drop of viability,[7]; SK-MEL-30,81.87%
same,IC10 (10% of maximal inhibition of viability),"[7]; SK-MEL-30, 24 h",0.24 µM
"COc1cc(/C=C/CO)cc(OC)c1O[C@@H]1O[C@H](CO)[C@@H](O)[C@H](O)[C@H]1O [Eleutheroside B, syringin 4-β-D-glucoside]",IC50 mTYR,[1],no activity
same,IC50 bHYAL,[2]; [11],no activity
O=C(O)c1ccc(O)c(O)c1 [Protocatechuic acid],IC50 mTYR,[1],134.57 ± 3.46 ^b µg/mL
"Cc1c(C)c2c(c(C)c1O)CCC(C)(C(=O)O)O2 (stereo not drawn) [TROLOX, 6-hydroxy-2,5,7,8-tetramethylchroman-2-carboxylic acid]",IC50 ABTS,[3],2.85 ± 0.18 ^ab µg/mL
same,IC50 DPPH,[4],13.68 ± 3.53 ^a µg/mL
O=C(/C=C/c1ccc(O)c(O)c1)O[C@H](Cc1ccc(O)c(O)c1)C(=O)O [rosmarinic acid],pIC50,[8],3.26
Eleutheroside E1,IC50 mTYR,[1],no activity
same,IC50 bHYAL,[2]; [11],no activity
aescin,"inhibition of human hyaluronidase activity, range",[9],20.00–47.37%
same,"inhibition of hyaluronidase activity, mean group value",[9],40%
same,"hHYAL inhibition, mean group value",[10],63.8%
same,IC50 bHYAL,[2]; fractions of the 75% methanol extract and control (Table 5),388.8 ± 1.81 ^b µg/mL
